Experimental data reported in patent US20210045385A1, “PYRIDAZINONE-SUBSTITUTED KETOXIMES AS HERBICIDES” (FMC Corporation, priority 2018, published 2021).

Columns and labels:
Type in all cases: in vivo
[1] = test system: barnyardgrass (Echinochloa crus-galli); assay: Test D flooded paddy test, visual plant response rating; settings: 250 g ai/ha, scale 0 to 100 (0 no effect, 100 complete control), 13 to 15 d
In short: (§1)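 Greenhouse paddy assay scored on a 0–100 visual scale after 13 to 15 d, where 100 means complete control and a dash marks no result; dosing was into 3 cm floodwater over 2-leaf plants.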

rice (Oryza sativa) = assay: as above; settings: 250 g ai/ha, scale 0 to 100 (0 no effect, 100 complete control), 13 to 15 d
In short: as §1

[2] = test system: duck salad (Heteranthera limosa); assay: as above; settings: 250 g ai/ha, scale 0 to 100 (0 no effect, 100 complete control), 13 to 15 d
In short: as §1

[3] = test system: sedge umbrella (small-flower umbrella sedge, Cyperus difformis); assay: as above; settings: 250 g ai/ha, scale 0 to 100 (0 no effect, 100 complete control), 13 to 15 d
In short: as §1

kochia (Bassia scoparia) [4] = assay: Test C preemergence, visual plant response rating; settings: Test C, 0 is no effect, 100 is complete control
In short: (§2)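 Seeds sown in a loam–sand blend got a directed preemergence soil spray; postemergence plants (2–10 cm, one- to two-leaf stage) were sprayed with compound in a non-phytotoxic solvent plus surfactant. Injury was scored visually against untreated controls after about 10 d in a greenhouse on a 0–100 scale (100 = complete control).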

[5] = test system: ragweed (common ragweed, Ambrosia artemisiifolia); assay: Test C preemergence, visual plant response rating; settings: Test C, 0 is no effect, 100 is complete control
In short: as §2

[6] = test system: pigweed (Amaranthus retroflexus); assay: Test C preemergence, visual plant response rating; settings: Test C, 0 is no effect, 100 is complete control
In short: as §2

[7] = test system: barnyardgrass (Echinochloa crus-galli); assay: Test C preemergence, visual plant response rating; settings: Test C, 0 is no effect, 100 is complete control
In short: as §2

[8] = test system: foxtail, giant (giant foxtail, Setaria faberi); assay: Test C preemergence, visual plant response rating; settings: Test C, 0 is no effect, 100 is complete control
In short: as §2

[9] = test system: Italian ryegrass (Lolium mutiflorum); assay: Test C preemergence, visual plant response rating; settings: Test C, 0 is no effect, 100 is complete control
In short: as §2

corn (Zea mays) = assay: Test C postemergence, visual plant response rating
In short: as §2

[10] = test system: blackgrass (Alopecurus myosuroides); assay: Test C postemergence, visual plant response rating
In short: as §2

[11] = test system: wheat (Triticum aestivum); assay: Test C postemergence, visual plant response rating
In short: as §2

kochia (Bassia scoparia) [12] = assay: Test C postemergence, visual plant response rating
In short: as §2

[13] = test system: ragweed (common ragweed, Ambrosia artemisiifolia); assay: Test C postemergence, visual plant response rating
In short: as §2

[14] = test system: pigweed (Amaranthus retroflexus); assay: Test C postemergence, visual plant response rating
In short: as §2

[15] = test system: barnyardgrass (Echinochloa crus-galli); assay: Test C postemergence, visual plant response rating
In short: as §2

[16] = test system: foxtail, giant (giant foxtail, Setaria faberi); assay: Test C postemergence, visual plant response rating
In short: as §2

[17] = test system: Italian ryegrass (Lolium mutiflorum); assay: Test C postemergence, visual plant response rating
In short: as §2

[18] = test system: galium (catchweed bedstraw, Galium aparine); assay: Test C postemergence, visual plant response rating
In short: as §2

[19] = Test C, postemergence, 125 g ai/ha

C#CCON=C(c1cc(Cl)cc(Cl)c1Cl)c1c(O)c(C)nn(C)c1=O [Compound 296]
Plant response rating, Barnyardgrass (Flood) [1]: 0 | Plant response rating, Rice (Flood) (rice (Oryza sativa)): 0 | Plant response rating, Ducksalad (Flood) [2]: 0 | Plant response rating, Sedge, Umbrella (Flood) [3]: 0 | Kochia plant response rating (0 to 100 scale) (kochia (Bassia scoparia) [4]; 31 g ai/ha): 0 | Kochia plant response rating (0 to 100 scale) (kochia (Bassia scoparia) [4]; 125 g ai/ha): 20 | Ragweed plant response rating (0 to 100 scale) ([5]; 31 g ai/ha): 30 | Ragweed plant response rating (0 to 100 scale) ([5]; 125 g ai/ha): 100 | Pigweed plant response rating (0 to 100 scale) ([6]; 31 g ai/ha): 40 | Pigweed plant response rating (0 to 100 scale) ([6]; 125 g ai/ha): 100 | Barnyardgrass plant response rating (0 to 100 scale) ([7]; 31 g ai/ha): 60 | Barnyardgrass plant response rating (0 to 100 scale) ([7]; 125 g ai/ha): 100 | Foxtail, Giant plant response rating (0 to 100 scale) ([8]; 31 g ai/ha): 80 | Foxtail, Giant plant response rating (0 to 100 scale) ([8]; 125 g ai/ha): 100 | Ryegrass, Italian plant response rating (0 to 100 scale) ([9]; 31 g ai/ha): 90 | Ryegrass, Italian plant response rating (0 to 100 scale) ([9]; 125 g ai/ha): 100 | Corn plant response rating (0 to 100 scale) (corn (Zea mays); Postemergence, 31 g ai/ha): 0 | Corn plant response rating (0 to 100 scale) (corn (Zea mays); [19]): 20 | Blackgrass plant response rating (0 to 100 scale) ([10]; Postemergence, 31 g ai/ha): 0 | Blackgrass plant response rating (0 to 100 scale) [10, 19]: 70 | Wheat plant response rating (0 to 100 scale) ([11]; Postemergence, 31 g ai/ha): 70 | Wheat plant response rating (0 to 100 scale) [11, 19]: 100 | Kochia plant response rating (0 to 100 scale) (kochia (Bassia scoparia) [12]; Postemergence, 31 g ai/ha): 30 | Kochia plant response rating (0 to 100 scale) (kochia (Bassia scoparia) [12]; [19]): 50 | Ragweed plant response rating (0 to 100 scale) ([13]; Postemergence, 31 g ai/ha): 100 | Ragweed plant response rating (0 to 100 scale) [13, 19]: 100 | Pigweed plant response rating (0 to 100 scale) ([14]; Postemergence, 31 g ai/ha): 80 | Pigweed plant response rating (0 to 100 scale) [14, 19]: 90 | Barnyardgrass plant response rating (0 to 100 scale) ([15]; Postemergence, 31 g ai/ha): 20 | Barnyardgrass plant response rating (0 to 100 scale) [15, 19]: 70 | Foxtail, Giant plant response rating (0 to 100 scale) ([16]; Postemergence, 31 g ai/ha): 30 | Foxtail, Giant plant response rating (0 to 100 scale) [16, 19]: 90 | Ryegrass, Italian plant response rating (0 to 100 scale) ([17]; Postemergence, 31 g ai/ha): 80 | Ryegrass, Italian plant response rating (0 to 100 scale) [17, 19]: 100 | Galium plant response rating (0 to 100 scale) ([18]; Postemergence, 31 g ai/ha): 100 | Galium plant response rating (0 to 100 scale) [18, 19]: 100

C#CCO/N=C(\c1ccc(F)c(Cl)c1)c1c(O)c(C)nn(C)c1=O [Compound 230]
Plant response rating, Barnyardgrass (Flood) [1]: 0 | Plant response rating, Rice (Flood) (rice (Oryza sativa)): 0 | Plant response rating, Ducksalad (Flood) [2]: 0 | Plant response rating, Sedge, Umbrella (Flood) [3]: 0 | Kochia plant response rating (0 to 100 scale) (kochia (Bassia scoparia) [4]; 31 g ai/ha): 0 | Kochia plant response rating (0 to 100 scale) (kochia (Bassia scoparia) [4]; 125 g ai/ha): 0 | Ragweed plant response rating (0 to 100 scale) ([5]; 31 g ai/ha): 0 | Ragweed plant response rating (0 to 100 scale) ([5]; 125 g ai/ha): 0 | Pigweed plant response rating (0 to 100 scale) ([6]; 31 g ai/ha): 10 | Pigweed plant response rating (0 to 100 scale) ([6]; 125 g ai/ha): 30 | Barnyardgrass plant response rating (0 to 100 scale) ([7]; 31 g ai/ha): 0 | Barnyardgrass plant response rating (0 to 100 scale) ([7]; 125 g ai/ha): 0 | Foxtail, Giant plant response rating (0 to 100 scale) ([8]; 31 g ai/ha): 0 | Foxtail, Giant plant response rating (0 to 100 scale) ([8]; 125 g ai/ha): 30 | Ryegrass, Italian plant response rating (0 to 100 scale) ([9]; 31 g ai/ha): 0 | Ryegrass, Italian plant response rating (0 to 100 scale) ([9]; 125 g ai/ha): 10 | Corn plant response rating (0 to 100 scale) (corn (Zea mays); Postemergence, 31 g ai/ha): 0 | Corn plant response rating (0 to 100 scale) (corn (Zea mays); [19]): 0 | Blackgrass plant response rating (0 to 100 scale) ([10]; Postemergence, 31 g ai/ha): 0 | Blackgrass plant response rating (0 to 100 scale) [10, 19]: 10 | Wheat plant response rating (0 to 100 scale) ([11]; Postemergence, 31 g ai/ha): 0 | Wheat plant response rating (0 to 100 scale) [11, 19]: 60 | Kochia plant response rating (0 to 100 scale) (kochia (Bassia scoparia) [12]; Postemergence, 31 g ai/ha): 0 | Kochia plant response rating (0 to 100 scale) (kochia (Bassia scoparia) [12]; [19]): 0 | Ragweed plant response rating (0 to 100 scale) ([13]; Postemergence, 31 g ai/ha): 10 | Ragweed plant response rating (0 to 100 scale) [13, 19]: 20 | Pigweed plant response rating (0 to 100 scale) ([14]; Postemergence, 31 g ai/ha): 0 | Pigweed plant response rating (0 to 100 scale) [14, 19]: 20 | Barnyardgrass plant response rating (0 to 100 scale) ([15]; Postemergence, 31 g ai/ha): 0 | Barnyardgrass plant response rating (0 to 100 scale) [15, 19]: 20 | Foxtail, Giant plant response rating (0 to 100 scale) ([16]; Postemergence, 31 g ai/ha): 10 | Foxtail, Giant plant response rating (0 to 100 scale) [16, 19]: 30 | Ryegrass, Italian plant response rating (0 to 100 scale) ([17]; Postemergence, 31 g ai/ha): 0 | Ryegrass, Italian plant response rating (0 to 100 scale) [17, 19]: 40 | Galium plant response rating (0 to 100 scale) ([18]; Postemergence, 31 g ai/ha): 50 | Galium plant response rating (0 to 100 scale) [18, 19]: 70
